Publication PMC7265341, “Quantifying CDK inhibitor selectivity in live cells” (Nature Communications, 2020)
Like-named read-outs stand apart in the source and are kept apart here.

Tests used:
CDK20/Cyclin H = CDK20/Cyclin H (Homo sapiens, UniProt Q8IZL9); experiment: NanoBRET live-cell target engagement, NanoLuc-CDK20/Cyclin H in HEK-293; assay type: binding; conditions: for IC50: read-out: Cheng-Prusoff IC50 Replot: IC50; for inhibition at 10 µM: CDK20/H
CDK13/Cyclin K = CDK13/Cyclin K (Homo sapiens, UniProt Q14004); experiment: NanoBRET live-cell target engagement, CDK13-NanoLuc/Cyclin K in HEK-293; assay type: binding; conditions: CDK13/K, 10µM
CDK12/Cyclin K = CDK12/Cyclin K (Homo sapiens, UniProt Q9NYV4); experiment: NanoBRET live-cell target engagement, CDK12-NanoLuc/Cyclin K in HEK-293; assay type: binding; conditions: CDK12/K, 10µM
Sequence of CDK12/Cyclin K (Q9NYV4 1-1481 isoform Q9NYV4-2): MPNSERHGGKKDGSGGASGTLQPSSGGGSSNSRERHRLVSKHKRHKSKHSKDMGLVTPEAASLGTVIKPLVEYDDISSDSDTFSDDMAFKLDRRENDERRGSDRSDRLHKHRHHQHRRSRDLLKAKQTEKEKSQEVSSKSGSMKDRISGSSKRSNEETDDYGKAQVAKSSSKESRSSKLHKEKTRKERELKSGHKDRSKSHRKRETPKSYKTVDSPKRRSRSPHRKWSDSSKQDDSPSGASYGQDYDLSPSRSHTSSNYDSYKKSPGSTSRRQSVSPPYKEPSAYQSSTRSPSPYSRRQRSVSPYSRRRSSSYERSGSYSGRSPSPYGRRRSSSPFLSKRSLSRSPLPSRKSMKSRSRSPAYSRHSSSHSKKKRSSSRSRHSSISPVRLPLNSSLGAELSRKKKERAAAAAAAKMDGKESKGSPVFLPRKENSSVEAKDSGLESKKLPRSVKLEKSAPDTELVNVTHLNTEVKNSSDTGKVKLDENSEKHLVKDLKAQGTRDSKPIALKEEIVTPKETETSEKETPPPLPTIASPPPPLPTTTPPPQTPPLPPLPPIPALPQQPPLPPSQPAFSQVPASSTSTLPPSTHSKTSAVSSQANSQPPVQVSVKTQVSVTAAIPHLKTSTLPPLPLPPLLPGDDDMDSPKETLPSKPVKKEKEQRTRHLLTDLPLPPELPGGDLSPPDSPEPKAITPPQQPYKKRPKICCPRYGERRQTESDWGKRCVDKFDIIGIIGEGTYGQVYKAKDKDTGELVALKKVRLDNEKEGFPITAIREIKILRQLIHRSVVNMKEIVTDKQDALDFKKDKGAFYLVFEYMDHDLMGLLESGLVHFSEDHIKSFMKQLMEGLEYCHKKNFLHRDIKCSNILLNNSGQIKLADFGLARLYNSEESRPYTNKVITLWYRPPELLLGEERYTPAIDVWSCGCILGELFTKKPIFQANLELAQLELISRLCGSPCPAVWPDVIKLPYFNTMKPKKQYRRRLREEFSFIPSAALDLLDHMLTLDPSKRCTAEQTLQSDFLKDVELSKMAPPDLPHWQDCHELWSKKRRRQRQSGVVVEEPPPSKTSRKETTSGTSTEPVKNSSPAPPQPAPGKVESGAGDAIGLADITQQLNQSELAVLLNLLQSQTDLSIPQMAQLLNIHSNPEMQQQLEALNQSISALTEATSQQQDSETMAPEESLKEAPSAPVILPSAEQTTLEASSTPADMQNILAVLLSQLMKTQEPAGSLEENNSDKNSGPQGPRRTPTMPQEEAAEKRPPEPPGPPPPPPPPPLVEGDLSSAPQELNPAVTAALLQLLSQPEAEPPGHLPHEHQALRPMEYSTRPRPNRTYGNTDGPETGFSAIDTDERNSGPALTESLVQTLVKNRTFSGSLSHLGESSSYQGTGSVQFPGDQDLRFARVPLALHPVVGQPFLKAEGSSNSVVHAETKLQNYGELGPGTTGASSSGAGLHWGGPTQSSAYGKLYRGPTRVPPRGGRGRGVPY
Sequence of CDK12/Cyclin K (O75909 whole entry partner): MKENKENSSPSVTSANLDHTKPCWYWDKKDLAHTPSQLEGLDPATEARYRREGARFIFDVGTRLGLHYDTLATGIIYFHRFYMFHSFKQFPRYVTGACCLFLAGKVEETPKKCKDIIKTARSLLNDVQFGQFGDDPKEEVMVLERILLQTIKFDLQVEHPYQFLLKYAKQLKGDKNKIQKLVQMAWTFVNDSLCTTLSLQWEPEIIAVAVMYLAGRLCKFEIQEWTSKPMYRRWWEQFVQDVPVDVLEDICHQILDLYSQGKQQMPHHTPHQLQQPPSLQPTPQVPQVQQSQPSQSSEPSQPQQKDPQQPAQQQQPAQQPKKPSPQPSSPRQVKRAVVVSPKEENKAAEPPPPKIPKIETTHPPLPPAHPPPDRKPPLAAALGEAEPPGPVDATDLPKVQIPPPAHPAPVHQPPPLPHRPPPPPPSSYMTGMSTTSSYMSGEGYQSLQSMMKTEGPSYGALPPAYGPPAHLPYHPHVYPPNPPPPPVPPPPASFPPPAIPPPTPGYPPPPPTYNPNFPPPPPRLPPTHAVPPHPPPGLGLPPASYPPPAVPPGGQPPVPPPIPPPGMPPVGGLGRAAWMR

CDK8/Cyclin C = CDK8/Cyclin C (Homo sapiens, UniProt P49336); experiment: NanoBRET live-cell target engagement, NanoLuc-CDK8/Cyclin C in HEK-293; assay type: binding; conditions: CDK8/C, 10µM
Sequence of CDK8/Cyclin C (P49336 whole entry): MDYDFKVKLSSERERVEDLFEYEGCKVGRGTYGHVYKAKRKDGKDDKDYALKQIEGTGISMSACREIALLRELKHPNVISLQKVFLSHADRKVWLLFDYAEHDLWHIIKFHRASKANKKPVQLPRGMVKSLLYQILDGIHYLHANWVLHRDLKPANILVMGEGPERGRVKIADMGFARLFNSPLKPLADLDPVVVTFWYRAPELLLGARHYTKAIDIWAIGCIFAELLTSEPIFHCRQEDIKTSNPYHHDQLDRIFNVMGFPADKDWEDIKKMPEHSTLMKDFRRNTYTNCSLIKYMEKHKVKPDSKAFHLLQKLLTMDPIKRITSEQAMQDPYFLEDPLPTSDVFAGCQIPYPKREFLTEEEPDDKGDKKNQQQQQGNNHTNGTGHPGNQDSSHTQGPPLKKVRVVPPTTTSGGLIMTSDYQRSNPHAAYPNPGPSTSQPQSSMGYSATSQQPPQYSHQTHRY
Sequence of CDK8/Cyclin C (P24863 whole entry partner): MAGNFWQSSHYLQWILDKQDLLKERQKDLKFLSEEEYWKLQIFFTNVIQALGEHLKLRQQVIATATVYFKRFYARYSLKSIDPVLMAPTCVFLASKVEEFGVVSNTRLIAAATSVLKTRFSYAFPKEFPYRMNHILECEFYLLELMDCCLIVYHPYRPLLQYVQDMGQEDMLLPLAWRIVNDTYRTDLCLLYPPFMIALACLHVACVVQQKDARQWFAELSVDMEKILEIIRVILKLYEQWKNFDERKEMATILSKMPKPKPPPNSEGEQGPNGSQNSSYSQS

CDK9/Cyclin K = CDK9/Cyclin K (Homo sapiens, UniProt P50750); experiment: NanoBRET live-cell target engagement, NanoLuc-CDK9/Cyclin K in HEK-293; assay type: binding; conditions: CDK9/K, 10µM
Sequence of CDK9/Cyclin K (P50750 whole entry): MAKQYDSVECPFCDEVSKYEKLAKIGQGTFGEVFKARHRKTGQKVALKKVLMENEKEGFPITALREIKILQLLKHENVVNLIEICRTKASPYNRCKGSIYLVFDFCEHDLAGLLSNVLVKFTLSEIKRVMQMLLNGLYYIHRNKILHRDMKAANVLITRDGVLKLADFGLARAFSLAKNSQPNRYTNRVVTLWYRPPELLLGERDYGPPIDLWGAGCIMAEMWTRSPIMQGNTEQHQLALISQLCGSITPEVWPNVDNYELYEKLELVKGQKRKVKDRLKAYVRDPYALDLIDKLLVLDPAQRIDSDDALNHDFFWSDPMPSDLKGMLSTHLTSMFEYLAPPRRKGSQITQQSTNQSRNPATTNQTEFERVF
Sequence of CDK9/Cyclin K (O75909 whole entry partner): as the sequence (O75909 whole entry partner) above

CDK10/Cyclin L2 = CDK10/Cyclin L2 (Homo sapiens, UniProt Q15131); experiment: NanoBRET live-cell target engagement, CDK10-NanoLuc/Cyclin L2 in HEK-293; conditions: 10µM
CDK7 = CDK7 (Homo sapiens, UniProt P50613); experiment: NanoBRET live-cell target engagement, NanoLuc-CDK7 in HEK-293; assay type: binding; conditions: CDK7, 10µM
Sequence of CDK7 (P50613 whole entry): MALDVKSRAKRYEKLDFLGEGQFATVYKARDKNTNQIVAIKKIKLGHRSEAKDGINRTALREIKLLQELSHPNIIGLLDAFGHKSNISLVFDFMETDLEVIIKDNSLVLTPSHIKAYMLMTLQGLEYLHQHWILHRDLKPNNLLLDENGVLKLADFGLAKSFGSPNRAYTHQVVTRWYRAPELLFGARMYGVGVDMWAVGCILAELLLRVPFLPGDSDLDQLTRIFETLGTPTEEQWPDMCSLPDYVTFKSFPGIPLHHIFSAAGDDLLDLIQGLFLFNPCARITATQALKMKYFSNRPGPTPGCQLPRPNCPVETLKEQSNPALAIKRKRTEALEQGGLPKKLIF

CDK19/Cyclin C = CDK19/Cyclin C (Homo sapiens, UniProt Q9BWU1); experiment: NanoBRET live-cell target engagement, NanoLuc-CDK19/Cyclin C in HEK-293; conditions: 10µM
Sequence of CDK19/Cyclin C (Q9BWU1 whole entry): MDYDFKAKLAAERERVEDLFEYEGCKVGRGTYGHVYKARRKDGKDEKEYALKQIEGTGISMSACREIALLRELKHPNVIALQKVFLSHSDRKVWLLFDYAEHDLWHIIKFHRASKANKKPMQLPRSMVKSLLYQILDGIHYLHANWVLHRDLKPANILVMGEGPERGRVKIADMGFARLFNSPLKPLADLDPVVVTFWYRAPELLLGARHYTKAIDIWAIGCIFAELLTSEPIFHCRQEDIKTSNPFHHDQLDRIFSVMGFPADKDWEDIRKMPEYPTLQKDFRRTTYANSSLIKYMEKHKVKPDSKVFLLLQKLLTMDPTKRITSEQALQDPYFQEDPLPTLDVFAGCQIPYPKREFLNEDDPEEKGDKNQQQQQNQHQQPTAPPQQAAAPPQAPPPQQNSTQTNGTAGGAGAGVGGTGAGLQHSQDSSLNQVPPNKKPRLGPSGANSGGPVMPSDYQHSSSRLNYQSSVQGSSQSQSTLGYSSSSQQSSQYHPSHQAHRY
Sequence of CDK19/Cyclin C (P24863 whole entry partner): as the sequence (P24863 whole entry partner) above

CDK2/Cyclin E1 = CDK2/Cyclin E1 (Homo sapiens, UniProt P24941); experiment: NanoBRET live-cell target engagement, CDK2-NanoLuc/Cyclin E1 in HEK-293; assay type: binding; conditions: live HEK-293, 2 h; mean ± S.E.M. (n=3) or mean (n=2); read-out: IC50 for CDK/cyclin complexes, CDK2/E1
[1] = average of replicates, read-out: Inhibition at 10µM (%) Average
[2] = read-out: Inhibition at 10µM (%) Replicate 1
[3] = read-out: Inhibition at 10µM (%) Replicate 2

Sequence of CDK20/Cyclin H (Q8IZL9 whole entry): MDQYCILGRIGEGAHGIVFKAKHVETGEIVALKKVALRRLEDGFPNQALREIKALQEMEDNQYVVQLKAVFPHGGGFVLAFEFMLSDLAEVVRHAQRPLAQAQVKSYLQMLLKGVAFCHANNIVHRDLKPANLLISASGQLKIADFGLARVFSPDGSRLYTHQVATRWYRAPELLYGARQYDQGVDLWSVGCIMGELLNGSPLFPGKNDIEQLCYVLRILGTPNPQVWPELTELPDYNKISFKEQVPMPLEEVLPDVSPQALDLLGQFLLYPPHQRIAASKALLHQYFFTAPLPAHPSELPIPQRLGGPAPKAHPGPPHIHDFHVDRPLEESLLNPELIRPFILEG
Sequence of CDK20/Cyclin H (P51946 whole entry partner): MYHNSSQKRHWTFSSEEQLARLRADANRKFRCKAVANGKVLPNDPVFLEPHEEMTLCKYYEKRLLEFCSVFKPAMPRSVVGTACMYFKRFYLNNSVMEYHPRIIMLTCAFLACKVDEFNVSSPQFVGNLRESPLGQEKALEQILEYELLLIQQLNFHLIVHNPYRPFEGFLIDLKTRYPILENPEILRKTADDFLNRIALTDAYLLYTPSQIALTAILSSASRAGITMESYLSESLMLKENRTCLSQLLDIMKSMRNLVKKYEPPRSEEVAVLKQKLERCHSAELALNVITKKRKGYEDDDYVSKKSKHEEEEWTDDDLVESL

For `CNC(=O)c1ccccc1Nc1nc(Nc2ccc(N3CCNCC3)cc2)ncc1Cl` [CTx-0294885], the IC50 (CDK20/Cyclin H; CDK20 with probe 4 at 0.5 uM) was 1400 nM, the IC50 (CDK20/Cyclin H; CDK20 with probe 4 at 1 uM) was 1600 nM and the IC50 (CDK20/Cyclin H; CDK20 with probe 4 at […]) was 1500 nM. The “CDK20 engagement at 10 µM” value (CDK20/Cyclin H; live HEK-293) was greater than 50%.
`O=C(NC1CCNCC1)c1[nH]ncc1NC(=O)c1c(Cl)cccc1Cl` [AT7519] showed an inhibition at 10 µM (CDK13/Cyclin K; [1]) of 47.1%, an inhibition at 10 µM (CDK13/Cyclin K; [2]) of 44.4% and an inhibition at 10 µM (CDK13/Cyclin K; [3]) of 49.7%. The inhibition at 10 µM (CDK20/Cyclin H; [2]) was 30%, the inhibition at 10 µM (CDK20/Cyclin H; [3]) was 39.7% and the inhibition at 10 µM (CDK12/Cyclin K; [1]) was 52.7%. It also gave an inhibition at 10 µM (CDK12/Cyclin K; [2]) of 52.9%, an inhibition at 10 µM (CDK12/Cyclin K; [3]) of 52.5% and an inhibition at 10 µM (CDK8/Cyclin C; [1]) of 29.8%. For the same compound, the inhibition at 10 µM (CDK8/Cyclin C; [2]) was 34.8%, the inhibition at 10 µM (CDK8/Cyclin C; [3]) was 24.8% and the inhibition at 10 µM (CDK9/Cyclin K; [1]) was 98.6%. For the same compound, the inhibition at 10 µM (CDK9/Cyclin K; [2]) was 98%, the inhibition at 10 µM (CDK9/Cyclin K; [3]) was 99.2% and the inhibition at 10 µM (CDK10/Cyclin L2; read-out: Inhibition at 10µM (%) Average, CDK10/L2, average of replicates) was 77%. For the same compound, the inhibition at 10 µM (CDK10/Cyclin L2; read-out: Inhibition at 10µM (%) Replicate 1, CDK10/L2) was 77.8%, the inhibition at 10 µM (CDK10/Cyclin L2; read-out: Inhibition at 10µM (%) Replicate 2, CDK10/L2) was 76.2% and the inhibition at 10 µM (CDK7; [1]) was 87.6%. It also gave an inhibition at 10 µM (CDK7; [2]) of 89.4%, an inhibition at 10 µM (CDK7; [3]) of 85.8% and an inhibition at 10 µM (CDK19/Cyclin C; read-out: Inhibition at 10µM (%) Average, CDK19/C, average of replicates) of 41.9%. For the same compound, the inhibition at 10 µM (CDK19/Cyclin C; read-out: Inhibition at 10µM (%) Replicate 1, CDK19/C) was 45.9% and the inhibition at 10 µM (CDK19/Cyclin C; read-out: Inhibition at 10µM (%) Replicate 2, CDK19/C) was 37.9%.
`CC[C@H](CO)Nc1nc(Nc2cccc(-c3ccccn3)c2)c2ncn(C(C)C)c2n1` [(R)-DRF053] showed an IC50 (CDK2/Cyclin E1) of 410 nM.
